Our source for the Kd values is patent US20250388593A1 (MITSUBISHI TANABE PHARMA CORPORATION, priority 2023, published 2025).

SMILES strings stand for the structures.

The target in the assay is CRBN truncate (318-426) (Homo sapiens (Human), UniProt Q96SW2). Kind of assay: Measurement of molecular interactions using surface plasmon resonance (SPR), Biacore T200. Type of assay: binding. The settings on record: 25° C., immobilized CRBN truncate, upper limit of measurement 200 μM. The gist of the method: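 Compound injections used 60 s association and 120 s dissociation in HEPES pH 7.5 buffer (150 mM NaCl, 1 mM TCEP, 0.005% Tween 20, 2% DMSO). The ligand was CRBN truncate 318-426 bearing a C-terminal Avi-tag, immobilised via streptavidin on an SA sensor chip.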
Sequence of CRBN truncate (318-426) (Q96SW2 318-426): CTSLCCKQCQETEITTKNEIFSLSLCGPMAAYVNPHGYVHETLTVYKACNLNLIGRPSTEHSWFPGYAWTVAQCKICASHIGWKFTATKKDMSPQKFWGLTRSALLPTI
(In general: SPR reads the build-up and loss of mass on a sensor chip optically.)
A word on the Kd: it is the concentration at which binding is half-saturated. `CC(C)(C)[Si](C)(C)OC1c2cccc(Br)c2CC1N1CC=CC(=O)NC1=O` (stereo not shown) [Example 307] yielded a Kd of at least 100 µM.

Consider `Cn1c(=O)n(C2CCCC(=O)NC2=O)c2ccc(C3CCN(CC(=O)OC(C)(C)C)CC3)cc21` (stereo not shown) [Example 219, tert-Butyl 2-[4-[1-(2,7-dioxoazepan-3-yl)-3-methyl-2-oxobenzimidazol-5-yl]piperidin-1-yl]acetate], for which the Kd is below 50 µM.

`O=C1NC(=O)C2(c3ccc(Br)cc3)CCC1CC2` [Example 167, 1-(4-Bromophenyl)-3-azabicyclo [3.2.2]nonane-2,4-dione] gave a Kd of at least 100 µM.

`Cc1sc2c(c1C)C(c1ccc(Cl)cc1)=N[C@@H](CC(=O)NCCCCCCCCOc1ccc(C#N)c(N3CCC4(CCCC(=O)NC4=O)C3)c1)c1nnc(C)n1-2` (stereo partly drawn) [Example 320, 2-[(9S)-7-(4-chlorophenyl)-4,5,13-trimethyl-3-thia-1,8,11,12-tetraazatricyclo[8.3.0.02,6]trideca-2(6),4,7,10,12-pentaen-9-yl]-N-[8-[4-cyano-3-(6,8-dioxo-2,7-diazaspiro[4.6]undecan-2-yl)phenoxy]octyl]acetamide] showed a dissociation constant Kd below 50 µM.

In turn, `O=C1CCCC2(CCN(c3ccc([N+](=O)[O-])cc3)C2)C(=O)N1` (stereo not shown) [Example 80, 2-(4-Nitrophenyl)-2,7-diazaspiro[4.6]undecane-6,8-dione] had a dissociation constant (Kd) below 50 µM.

The compound `Cc1sc2c(c1C)C(c1ccc(Cl)cc1)=N[C@@H](CC(=O)NCCCCCCCCCCC(=O)N1CCc3c(ncnc3N3CC4(CC(=O)N(C5CCC(=O)NC5=O)C4=O)C3)C1)c1nnc(C)n1-2` (stereo partly drawn) [Example 357, 2-[(9S)-7-(4-chlorophenyl)-4,5,13-trimethyl-3-thia-1,8,11,12-tetraazatricyclo[8.3.0.02,6]trideca-2(6),4,7,10,12-pentaen-9-yl]-N-[11-[4-[6-(2,6-dioxo-3-piperidyl)-5,7-dioxo-2,6-diazaspiro[3.4]octan-2-yl]-6,8-dihydro-5H-pyrido[3,4-d]pyrimidin-7-yl]-11-oxo-undecyl]acetamide] registered a dissociation constant Kd below 50 µM.

Regarding `CCOC(=O)c1ccc2nc(N3CC4(CC(=O)N(C5CCC(=O)NC5=O)C4)C3)sc2c1` (stereo not shown) [Example 59, Ethyl 2-[6-(2,6-dioxo-3-piperidyl)-7-oxo-2,6-diazaspiro [3.4]octan-2-yl]-1,3-benzothiazole-6-carboxylate], the Kd is below 50 µM.

In turn, `COc1cccc2c1nnn2C1CCCC(=O)NC1=O` (stereo not shown) [Example 255, 3-(4-Methoxybenzotriazol-1-yl)azepane-2,7-dione] came in with a Kd of at least 100 µM.

`O=C1CCCN(c2nc3ccc([N+](=O)[O-])cc3s2)C(=O)N1` [Example 116, 1-(6-Nitro-1,3-benzothiazol-2-yl)-1,3-diazepane-2,4-dione] displayed an equilibrium dissociation constant (Kd) below 50 µM.

For the compound `O=C1CCCC(c2ccc([N+](=O)[O-])cc2)C(=O)N1` (stereo not shown) [Example 61, 3-(4-Nitrophenyl) azepane-2,7-dione], the Kd is at least 100 µM.

In the case of `O=C1COCC2(CCCN(C(=O)c3ccccc3)C2)C(=O)N1` (stereo not shown) [Example 12-2, 2-Benzoyl-8-oxa-2,11-diazaspiro[5.6]dodecane-10,12-dione], the dissociation constant (Kd) is at least 100 µM.

`Cc1ccc(NC(=O)NCCCn2c(=O)n(C3CCCC(=O)NC3=O)c3ccccc32)cc1Cl` (stereo not shown) [Example 202, 1-(3-Chloro-4-methylphenyl)-3-[3-[3-(2,7-dioxoazepan-3-yl)-2-oxobenzimidazol-1-yl]propyl]urea] yielded a Kd of at least 100 µM.

As for `CC(C)(C)OC(=O)c1ccc(N2CC3(CCCC(=O)NC3=O)CC2=O)nc1` (stereo not shown) [Example 113, tert-Butyl 6-(3,6,8-trioxo-2,7-diazaspiro [4.6]undecan-2-yl) pyridine-3-carboxylate], the Kd is at least 100 µM.

As for `COC(=O)c1cc2c(N3CCC4(CCCC(=O)NC4=O)C3)ncnc2s1` (stereo not shown) [Example 176, Methyl 4-(6,8-dioxo-2,7-diazaspiro[4.6]undecan-2-yl)thieno[2,3-d]pyrimidine-6-carboxylate], the Kd is below 50 µM.

Regarding `Nc1cccc(C2CCCC(=O)NC2=O)c1` (stereo not shown) [Example 70, 3-(3-Aminophenyl) azepane-2,7-dione], the Kd is at least 100 µM.

Turning to `CC(C)(C)OC(=O)c1cnc(N2CCC3(CCCC(=O)NC3=O)C2)nc1` (stereo not shown) [Example 32, tert-Butyl 2-(6,8-dioxo-2,7-diazaspiro [4.6]undecan-2-yl) pyrimidine-5-carboxylate], the Kd is at least 100 µM.

`CC(C)(C)OC(=O)CCc1ccc2c(c1)sc(=O)n2C1CCCC(=O)NC1=O` (stereo not shown) [Example 262, tert-Butyl 3-[3-(2,7-dioxoazepan-3-yl)-2-oxo-1,3-benzothiazol-6-yl]propanoate] displayed a dissociation constant Kd of 50 to 100 µM.

For `CC(C)(C)OC(=O)CCCCCN1CC2(CC(=O)N(C3CCC(=O)NC3=O)C2=O)C1` (stereo not shown) [Example 229, tert-Butyl 6-[6-(2,6-dioxopiperidin-3-yl)-5,7-dioxo-2,6-diazaspiro[3.4]octan-2-yl]hexanoate], the Kd is at least 100 µM.

For the compound `O=C1NC(=O)[C@@]2(c3ccc(Br)cc3)CC[C@@H]1O2` (racemic) [Example 173, 1-(4-Bromophenyl)-8-oxa-3-azabicyclo [3.2.1]octane-2,4-dione], the Kd is at least 100 µM.

`CC(C)(C)OC(=O)c1ccc(N2CC3(CC(=O)N(C4CCC(=O)NC4=O)C3=O)C2)nc1` (stereo not shown) [Example 45, tert-Butyl 6-[6-(2,6-dioxopiperidin-3-yl)-5,7-dioxo-2,6-diazaspiro [3.4]octan-2-yl]pyridine-3-carboxylate] returned a Kd of 50 to 100 µM.

`Cn1ccc2c(C(=O)N3CCC4(CCCC(=O)NC4=O)C3)cccc21` (stereo not shown) [Example 151, 2-(1-Methylindole-4-carbonyl)-2,7-diazaspiro [4.6]undecane-6,8-dione] returned a dissociation constant (Kd) of at least 100 µM.

In turn, `O=C1CCCC(n2ncc(-c3ccccc3)cc2=O)C(=O)N1` (stereo not shown) [Example 247, 3-(6-oxo-4-phenylpyridazin-1-yl)azepane-2,7-dione] displayed a Kd of at least 100 µM.

Turning to `Cc1sc2c(c1C)C(c1ccc(Cl)cc1)=N[C@@H](CC(=O)NCCCCCCCCNC(=O)CCc1ccc(-c3nn(C4CCCC(=O)NC4=O)c(=O)n3C)cc1)c1nnc(C)n1-2` (stereo partly drawn) [Example 336, N-[8-[[2-[(9S)-7-(4-chlorophenyl)-4,5,13-trimethyl-3-thia-1,8,11,12-tetraazatricyclo[8.3.0.02,6]trideca-2(6),4,7,10,12-pentaen-9-yl]acetyl]amino]octyl]-3-[4-[1-(2,7-dioxoazepan-3-yl)-4-methyl-5-oxo-1,2,4-triazol-3-yl]phenyl]propanamide], the Kd was below 50 µM.

For the compound `CC(C)(C)OC(=O)c1cccc(C2CCCC(=O)NC2=O)c1` (stereo not shown) [Example 60, tert-Butyl 3-(2,7-dioxoazepan-3-yl) benzoate], the dissociation constant (Kd) is 50 to 100 µM.

Compound `CCOC(=O)c1cc(N2CCC3(CCCC(=O)NC3=O)C2)ncc1C(F)(F)F` (stereo not shown) [Example 40, Ethyl 2-(6,8-dioxo-2,7-diazaspiro[4.6]undecan-2-yl)-5-(trifluoromethyl)pyridine-4-carboxylate] yielded an equilibrium dissociation constant (Kd) of at least 100 µM.

With `Cc1sc2c(c1C)C(c1ccc(Cl)cc1)=N[C@@H](CC(=O)NCCCCCCCCNC(=O)c1ccc(N3CCC4(CCCC(=O)NC4=O)CC3=O)nc1)c1nnc(C)n1-2` (stereo partly drawn) [Example 335, N-[8-[[2-[(9S)-7-(4-chlorophenyl)-4,5,13-trimethyl-3-thia-1,8,11,12-tetraazatricyclo[8.3.0.02,6]trideca-2(6),4,7,10,12-pentaen-9-yl]acetyl]amino]octyl]-6-(4,7,9-trioxo-3,8-diazaspiro[5.6]dodecan-3-yl)pyridine-3-carboxamide], the Kd was at least 100 µM.

Regarding `O=C1CCCC(n2nc(I)c3ccccc32)C(=O)N1` (stereo not shown) [Example 135, 3-(3-Iodoindazol-1-yl)azepane-2,7-dione], the Kd was below 50 µM.

In turn, `O=C1CCCC2(CCN(C(=O)c3cnn4ccccc34)C2)C(=O)N1` (stereo not shown) [Example 153, 2-(Pyrazolo[1,5-a]pyridine-3-carbonyl)-2,7-diazaspiro[4.6]undecane-6,8-dione] showed a Kd of at least 100 µM.

The compound `O=C1CCCC(NC(=O)c2cccc(-c3ccccc3)c2)C(=O)N1` (stereo not shown) [Example 21, N-(2,7-dioxoazepan-3-yl)-3-phenylbenzamide] had a Kd of at least 100 µM.

`Cn1c(=O)n(C2CCCC(=O)NC2=O)c2cccc(C3=CCN(C(=O)OC(C)(C)C)CC3)c21` (stereo not shown) [Example 220, tert-Butyl 4-[1-(2,7-dioxoazepan-3-yl)-3-methyl-2-oxobenzimidazol-4-yl]-3,6-dihydro-2H-pyridine-1-carboxylate] came in with a Kd of 50 to 100 µM.

`Cc1sc2c(c1C)C(c1ccc(Cl)cc1)=N[C@@H](CC(=O)NCCCCCCn1ccc3c(C(=O)N4CCC5(CCCC(=O)NC5=O)CC4)cccc31)c1nnc(C)n1-2` [Example 326, 2-[(9S)-7-(4-chlorophenyl)-4,5,13-trimethyl-3-thia-1,8,11,12-tetraazatricyclo[8.3.0.02,6]trideca-2(6),4,7,10,12-pentaen-9-yl]-N-[6-[4-(7,9-dioxo-3,8-diazaspiro[5.6]undecane-3-carbonyl)indol-1-yl]hexyl]acetamide]: the dissociation constant (Kd) was below 50 µM.

`COc1c(OCC(=O)OC(C)(C)C)cccc1C(=O)NC1CCCC(=O)NC1=O` (stereo not shown) [Example 68, tert-Butyl 2-[3-[(2,7-dioxoazepan-3-yl)carbamoyl]-2-methoxyphenoxy]acetate]: the Kd was at least 100 µM.

With `O=C1CCCC2(CCN(c3ncc([N+](=O)[O-])cc3C(F)(F)F)C2)C(=O)N1` (stereo not shown) [Example 79, 2-(5-nitro-3-(trifluoromethyl)-2-pyridyl)-2,7-diazaspiro[4.6]undecane-6,8-dione], the Kd was at least 100 µM.

For the compound `Cc1sc2c(c1C)C(c1ccc(Cl)cc1)=N[C@@H](CC(=O)NCCCCCCCCNC(=O)CCc1ccc3c(N4CCCC(=O)NC4=O)nn(C)c3c1)c1nnc(C)n1-2` [Example 346, N-[8-[[2-[(9S)-7-(4-chlorophenyl)-4,5,13-trimethyl-3-thia-1,8,11,12-tetraazatricyclo[8.3.0.02,6]trideca-2(6),4,7,10,12-pentaen-9-yl]acetyl]amino]octyl]-3-[3-(2,4-dioxo-1,3-diazepan-1-yl)-1-methyl-indazol-6-yl]propanamide], the dissociation constant (Kd) is below 50 µM.
